From paper PMC11901381 (Future Medicinal Chemistry, 2025)

Legend:
[1] = system: T. brucei brucei strain GUTat3.1; test: Antitrypanosomal assay; assay type: cell-based, Trypanosoma brucei brucei; details: for IC50: Trypanosoma brucei, read-out: Antitrypomastigote activity IC50 ± SD Tbb GuTat3.1
[2] = system: L. major strain NIH S promastigotes; test: Antipromastigote resazurin assay; assay type: cell-based, Leishmania major; details: for IC50: Leishmania major, read-out: Antipromastigote activity IC50; for AG (activity gain): IC50 (1)/IC50 (compd.), L. major promastigotes; for SI4: SI4 = IC50 Vero/IC50 promastigote, L. major
[3] = Animal cytotoxicity, CCK-8 assay; assay type: cell-based, bovine; details: bovine, MDBK (Madin-Darby bovine kidney) cells
General = assay type: cell-based; details: African green monkey, Vero cells (monkey kidney epithelial cells)
[4] = system: L. donovani strain 9515 promastigotes; test: Antipromastigote resazurin assay; assay type: cell-based, Leishmania donovani; details: for IC50: Leishmania donovani, read-out: Antipromastigote activity IC50; for AG (activity gain): IC50 (1)/IC50 (compd.), L. donovani promastigotes; for SI1: SI1 = IC50 Vero/IC50 promastigote, L. donovani
[5] = Host cell toxicity, resazurin assay; assay type: cell-based; details: human
[6] = system: L. major strain NIH S intramacrophage amastigotes; test: Intramacrophage antileishmanial resazurin assay; assay type: cell-based, Leishmania major; details: for SI5: SI5 = IC50 Vero/static IC50 amastigote; for SI5 / SI6 / SpI3 / SpI4: L. major; for SI6: SI6 = IC50 Vero/cidal IC50 amastigote; for SpI3: SpI3 = IC50 promastigote/static IC50 amastigote; for SpI4: SpI4 = IC50 promastigote/cidal IC50 amastigote; for Static anti-amastigote activity IC50: L. major NIH S amastigotes in THP-1 macrophages, 24 hours after lysis
[7] = system: L. donovani strain 9515 intramacrophage amastigotes; test: Intramacrophage antileishmanial resazurin assay; assay type: cell-based, Leishmania donovani; details: for SI2: SI2 = IC50 Vero/static IC50 amastigote; for SI2 / SI3 / SpI1 / SpI2: L. donovani; for SI3: SI3 = IC50 Vero/cidal IC50 amastigote; for SpI1: SpI1 = IC50 promastigote/static IC50 amastigote; for SpI2: SpI2 = IC50 promastigote/cidal IC50 amastigote; for Static anti-amastigote activity IC50: L. donovani 9515 amastigotes in THP-1 macrophages, 24 hours after lysis
[8] = system: T. congolense strain IL3000; test: Antitrypanosomal assay; assay type: cell-based, Trypanosoma congolense; details: IC50 of MDBK/IC50 of trypanosome
[9] = Solubility observed during sample preparation and screening; assay type: physicochemical; details: for Solubility in 100% DMSO: 100% dimethyl sulfoxide used for sample preparation
[10] = system: T. brucei gambiense strain IL1922; test: Antitrypanosomal assay; assay type: cell-based, Trypanosoma brucei gambiense; details: IC50 of MDBK/IC50 of trypanosome
[11] = system: T. brucei rhodesiense strain IL1501; test: Antitrypanosomal assay; assay type: cell-based, Trypanosoma brucei rhodesiense; details: IC50 of MDBK/IC50 of trypanosome

| IC50 (General) [µM] | SMILES | IC50 [1] [µM] | IC50 [2] [µM] | IC50 [3] [µM] | IC50 [4] [µM] | IC50 [5] [µM] | SI5 [6] | SI6 [6] | SpI3 [6] | SpI4 [6] | further results |
| --- | --- | --- | --- | --- | --- | --- | --- | --- | --- | --- | --- |
| > 100 | O=Cc1c[nH]c2ccc([N+](=O)[O-])cc12 [2a, 5-Nitro-1H-indole-3-carbaldehyde] | > 131 | > 100 | > 526 | > 100 | – | – | – | – | – | – |
| > 100 | C#CCn1cc(C=O)c2cc([N+](=O)[O-])ccc21 [2b, 5-Nitro-1-(prop-2-yn-1-yl)-1 H-indole-3-carbaldehyde] | > 110 | > 100 | > 438 | > 100 | 91.1 ± 12.6 | 41 | 41 | 41 | 42 | – |
| 18.8 ± 3.22 | O=C1NC(=S)S/C1=C\c1cn(Cc2ccccc2)c2ccc([N+](=O)[O-])cc12 [3c, (Z)-5-[(1-Benzyl-5-nitro-1 H-indol-3-yl)methylene]-2-thioxothiazolidin-4-one] | > 73 | > 100 | 99.13 ± 0.96 | > 100 | > 100 | 35 | 37 | 189 | 196 | SI Tc IL3000 [8]: 5; SI2 [7]: 6; SI3 [7]: 6; SpI1 [7]: 34; SpI2 [7]: 33 |
| 98.2 ± 1.62 | Cc1ccc(Cn2cc(/C=C3\SC(=S)NC3=O)c3cc([N+](=O)[O-])ccc32)cc1 [3d, (Z)-5-{[1-(4-Methylbenzyl)-5-nitro-1 H-indol-3-yl]methylene}-2-thioxothiazolidin-4-one] | > 70 | > 100 | – | 87.4 ± 17.8 | > 100 | 78 | – | 79 | 107 | AG (activity gain) [4]: 0.6; SI1 [4]: 1; SI2 [7]: 19; SI3 [7]: 17; SpI1 [7]: 17; SpI2 [7]: 15 |
| 17.4 ± 1.33 | O=C1NC(=S)S/C1=C\c1cn(Cc2ccc(F)cc2)c2ccc([N+](=O)[O-])cc12 [3e, (Z)-5-{[1-(4-Fluorobenzyl)-5-nitro-1H -indol-3-yl]methylene}-2-thioxothiazolidin-4-one] | > 63 | > 100 | 17 ± 2.65 | > 100 | – | – | – | – | – | SI Tc IL3000 [8]: 7; Solubility in 100% DMSO [9]: poor solubility |
| 22.2 ± 1.65 | O=C1NC(=S)S/C1=C\c1cn(Cc2cccc(Cl)c2)c2ccc([N+](=O)[O-])cc12 [3f, (Z)-5-{[1-(3-Chlorobenzyl)-5-nitro-1 H-indol-3-yl]methylene}-2-thioxothiazolidin-4-one] | > 61 | 17.7 ± 0.9 | – | 19.1 ± 3.7 | > 100 | 5 | 8 | 4 | 7 | AG (activity gain) [2]: 2.6; SI4 [2]: 1; Solubility in 100% DMSO [9]: poor solubility; AG (activity gain) [4]: 2.6; SI1 [4]: 1; SI2 [7]: 12; SI3 [7]: 11; SpI1 [7]: 10; SpI2 [7]: 10 |
| > 100 | O=C1CSC(=S)N1/N=C/c1c[nH]c2ccc([N+](=O)[O-])cc12 [4a, (E)-3-{[(5-Nitro-1 H-indol-3-yl)methylene]amino}-2-thioxothiazolidin-4-one] | > 61 | > 100 | 66.8 ± 9.55 | > 100 | – | – | – | – | – | – |
| > 100 | C#CCn1cc(/C=N/N2C(=O)CSC2=S)c2cc([N+](=O)[O-])ccc21 [4b, (E)-3-({[5-Nitro-1-(prop-2-yn-1-yl)-1 H-indol-3-yl]methylene}amino)-2-thioxothiazolidin-4-one] | > 59 | > 100 | – | > 100 | > 100 | 11 | 12 | 11 | 12 | Solubility in aqueous screening medium [9]: poor solubility |
| > 100 | O=C1CSC(=S)N1/N=C/c1cn(Cc2ccccc2)c2ccc([N+](=O)[O-])cc12 [4c, (E)-3-{[(1-Benzyl-5-nitro-1 H-indol-3-yl)methylene]amino}-2-thioxothiazolidin-4-one] | > 60 | > 100 | – | > 100 | > 100 | 38 | 41 | 38 | 41 | – |
| > 100 | Cc1ccc(Cn2cc(/C=N/N3C(=O)CSC3=S)c3cc([N+](=O)[O-])ccc32)cc1 [4d, (E)-3-({[1-(4-Methylbenzyl)-5-nitro-1H -indol-3-yl]methylene}amino)-2-thioxothiazolidin-4-one] | > 58 | 70.9 ± 14.3 | – | > 100 | – | – | – | – | – | AG (activity gain) [2]: 0.7; SI4 [2]: 1; Static anti-amastigote activity IC50 [6]: inactive; Solubility in aqueous screening medium [9]: poor solubility; Static anti-amastigote activity IC50 [7]: inactive |
| > 100 | O=C1CSC(=S)N1/N=C/c1cn(Cc2ccc(F)cc2)c2ccc([N+](=O)[O-])cc12 [4e, (E)-3-({[1-(4-Fluorobenzyl)-5-nitro-1 H-indol-3-yl]methylene}amino)-2-thioxothiazolidin-4-one] | 55.3 ± 4.84 | > 100 | 22.4 ± 5.37 | > 100 | – | – | – | – | – | SI Tbb GuTat3.1 ([1]; IC50 of MDBK/IC50 of trypanosome): 0; Solubility in aqueous screening medium [9]: poor solubility; SI Tbg IL1922 [10]: 0; SI Tbr IL1501 [11]: 0 |
| 58.8 ± 13.2 | O=C1CSC(=S)N1/N=C/c1cn(Cc2cccc(Cl)c2)c2ccc([N+](=O)[O-])cc12 [4f, (E)-3-({[1-(3-Chlorobenzyl)-5-nitro-1 H-indol-3-yl]methylene}amino)-2-thioxothiazolidin-4-one] | > 56 | > 100 | – | > 100 | – | – | – | – | – | – |
| – | C[C@@H]1[C@H](O)[C@@H](C)/C=C/C=C/C=C/C=C/C=C/C=C/C=C/[C@H](O[C@@H]2O[C@H](C)[C@@H](O)[C@H](N)[C@@H]2O)C[C@@H]2O[C@](O)(C[C@@H](O)C[C@@H](O)[C@H](O)CC[C@@H](O)C[C@@H](O)CC(=O)O[C@H]1C)C[C@H](O)[C@H]2C(=O)O [AMB, amphotericin B, reference compound] | – | – | – | 0.02 ± 0.009 | – | – | – | 0.1 | 0.2 | SpI1 [7]: 0.40; SpI2 [7]: 0.04 |
| – | Cc1ccc(C(=O)Nc2ccc(S(=O)(=O)O)c3cc(S(=O)(=O)O)cc(S(=O)(=O)O)c23)cc1NC(=O)c1cccc(NC(=O)Nc2cccc(C(=O)Nc3cc(C(=O)Nc4ccc(S(=O)(=O)O)c5cc(S(=O)(=O)O)cc(S(=O)(=O)O)c45)ccc3C)c2)c1 [Suramin, suramin, reference compound] | 0.07 ± 0.02 | – | > 70 | – | – | – | – | – | – | – |
| 79.5 ± 14.9 | O=[N+]([O-])c1ccc2[nH]ccc2c1 [compound 1, 5-nitroindole] | > 154 | 45.8 ± 5.47 | – | 50.3 ± 1.36 | > 100 | – | – | – | – | AG (activity gain) [2]: 1; SI4 [2]: 2; Static anti-amastigote activity IC50 [6]: inactive; AG (activity gain) [4]: 1; SI1 [4]: 2; Static anti-amastigote activity IC50 [7]: inactive |

| SMILES | IC50 (General) [µM] | IC50 [1] [µM] | IC50 [2] [µM] | IC50 [3] [µM] | IC50 [4] [µM] | IC50 [5] [µM] | SI5 [6] | SI6 [6] | SpI3 [6] | SpI4 [6] | further results |
| --- | --- | --- | --- | --- | --- | --- | --- | --- | --- | --- | --- |
| O=Cc1cn(Cc2ccccc2)c2ccc([N+](=O)[O-])cc12 [2c, 1-Benzyl-5-nitro-1 H-indole-3-carbaldehyde] | > 100 | > 89 | – | > 357 | – | > 100 | – | – | – | – | SI2 [7]: 28; SI3 [7]: 28; SpI1 [7]: 28; SpI2 [7]: 28 |
| Cc1ccc(Cn2cc(C=O)c3cc([N+](=O)[O-])ccc32)cc1 [2d, 1-(4-Methylbenzyl)-5-nitro-1 H-indole-3-carbaldehyde] | 96.9 ± 5.35 | > 85 | – | – | – | > 100 | – | – | – | – | AG (activity gain) [2]: 32.3; SI4 [2]: 68; AG (activity gain) [4]: 61; SI1 [4]: 117 |
| O=Cc1cn(Cc2cccc(Cl)c2)c2ccc([N+](=O)[O-])cc12 [2f, 1-(3-Chlorobenzyl)-5-nitro-1 H-indole-3-carbaldehyde] | 99.91 ± 0.13 | > 79 | – | – | – | > 100 | 10 | 7 | – | 1 | AG (activity gain) [2]: 5.3; SI4 [2]: 11 |
| CC[C@H]1CN2CCc3cc(OC)c(OC)cc3[C@@H]2C[C@@H]1C[C@H]1NCCc2cc(OC)c(OC)cc21 [Em, emetine, reference compound] | 0.09 ± 0.009 | – | – | – | – | – | – | – | – | – | – |
